The assay addresses T1, DC-SIGN (Homo sapiens, UniProt Q9NNX6).
T1 construct: host or cells: B-THP-1 (Raji B) cells, DC-SIGN+
T1 sequence (Q9NNX6 1-404): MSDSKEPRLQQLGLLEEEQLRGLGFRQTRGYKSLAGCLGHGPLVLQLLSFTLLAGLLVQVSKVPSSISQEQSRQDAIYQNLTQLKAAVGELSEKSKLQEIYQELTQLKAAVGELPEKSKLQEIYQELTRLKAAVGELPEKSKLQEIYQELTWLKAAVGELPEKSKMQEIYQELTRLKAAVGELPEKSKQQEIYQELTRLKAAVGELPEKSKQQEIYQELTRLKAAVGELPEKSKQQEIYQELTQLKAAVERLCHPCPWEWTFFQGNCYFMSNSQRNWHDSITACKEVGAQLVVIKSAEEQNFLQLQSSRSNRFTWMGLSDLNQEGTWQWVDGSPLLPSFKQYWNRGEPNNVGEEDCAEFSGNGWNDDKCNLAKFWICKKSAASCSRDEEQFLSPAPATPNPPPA
Kind of assay: cell-based.

These results are taken from patent EP3981777A1, “ANTIVIRAL COMPOUNDS AND POLYMERS” (priority 2020, dated 2022).

As a reminder, the IC50 is the concentration at which inhibition is half-maximal. Regarding `CO[C@H]1O[C@H](CO)[C@@H](O)[C@H](O)[C@@H]1O` [MeMan, methyl α-D-mannoside], half-maximal inhibition (IC50) was put at 6.5 mM.
